Laboratory results published in ChEMBL document CHEMBL1129084, “Structure-activity relationships for macrocyclic peptidomimetic inhibitors of HIV-1 protease” (Bioorg Med Chem Lett, 1996).
Starred links: 1 amine or outer side, 2 acyl side, 3 side chain; linkers in the order of their positions; H or OH if unused. Non-standard residues stand in square brackets, D forms with d. Residues, ends and D or L forms follow the SMILES beside them. Phe(ψ(S)CH(OH)CH2N)Pro = O=C([C@@H]1CCCN1C[C@H](O)[C@H](Cc1ccccc1)N[*:1])[*:2]; Pheψ(R-CH(OH)CH2N)Pro = O=C([C@@H]1CCCN1C[C@@H](O)[C@H](Cc1ccccc1)N[*:1])[*:2]

Molecular target: Human immunodeficiency virus type 1 protease (Human immunodeficiency virus 1, UniProt Q72874)

Question: For `CC[C@H](C)[C@H](NC(=O)[C@@H]1CCCN1C[C@@H](O)[C@H]1Cc2ccc(cc2)OCC(=O)N[C@@H](Cc2ccc(O)cc2)C(=O)N[C@@H](CC(N)=O)C(=O)N1)C(=O)N[C@H](C(N)=O)C(C)C`, which Ki is on record?
Answer: 0.165 µM

Question: With `CC(C)CN(CC(=O)NC(C)(C)C)C[C@@H](O)[C@H]1Cc2ccc(cc2)OCCCC(=O)N[C@@H](CC(N)=O)C(=O)N1` as the molecule, how does the Ki read?
Answer: 0.25 µM

Question: For `CC[C@H](C)[C@H](NC(=O)[C@@H]1CCCN1C[C@@H](O)[C@H]1Cc2ccc(cc2)OCCCC(=O)NC(CC(N)=O)C(=O)N1)C(N)=O` (some centres not stated), which Ki is on record?
Answer: 2.8 µM

Question: Which Ki does the source give for `CC(C)N(C(=O)[C@@H]1CCCN1C[C@@H](O)[C@H]1Cc2ccc(cc2)OCCCC(=O)NC(CC(N)=O)C(=O)N1)C(C)C` (some centres not stated) here?
Answer: 31 µM

Question: `CC(C)(C)NC(=O)[C@@H]1CCCN1C[C@@H](O)[C@H]1Cc2ccc(cc2)OCCCC(=O)NC(CC(N)=O)C(=O)N1` (some centres not stated) was tested. Which Ki did it give?
Answer: 0.057 µM

Question: For `CC[C@H](C)[C@H](NC(=O)[C@@H]1CCCN1C[C@@H](O)[C@H]1Cc2ccc(cc2)OCCCCC(=O)NC(CC(N)=O)C(=O)N1)C(=O)N[C@H](C(N)=O)C(C)C` (some centres not stated), which Ki is on record?
Answer: 0.074 µM

Question: How did the Ki turn out when `NC(=O)CC1NC(=O)CCCOc2ccc(cc2)C[C@H]([C@H](O)CN2CCC[C@H]2C(N)=O)NC1=O` (some centres not stated) was run?
Answer: 16 µM

Question: How did the Ki turn out when `CC[C@H](C)[C@H](NC(=O)[C@@H]1CCCN1C[C@H](O)[C@H]1Cc2ccc(cc2)OCC(=O)N[C@@H](Cc2ccc(O)cc2)C(=O)N[C@@H](CC(N)=O)C(=O)N1)C(=O)N[C@H](C(N)=O)C(C)C` was run?
Answer: 0.011 µM

Question: For `CC(C)(C)NC(=O)CN(Cc1ccccc1)C[C@@H](O)[C@H]1Cc2ccc(cc2)OCCCC(=O)N[C@@H](CC(N)=O)C(=O)N1`, which Ki is on record?
Answer: 0.44 µM

Question: For `CC(C)N(C(=O)[C@@H]1CCCN1C[C@H](O)[C@H]1Cc2ccc(cc2)OCCCC(=O)NC(CC(N)=O)C(=O)N1)C(C)C` (some centres not stated), which Ki is on record?
Answer: 86 µM

Question: For `CC[C@H](C)[C@H](NC(=O)[C@@H]1CCCN1C[C@H](O)[C@@H]1CSSC[C@@H](NC(C)=O)C(=O)NCC(=O)N[C@@H](CC(N)=O)C(=O)N1)C(=O)N[C@H](C(N)=O)C(C)C`, which Ki is on record?
Answer: 0.25 µM

Question: How did the Ki turn out when `CC[C@H](C)[C@H](NC(=O)[C@@H]1CCCN1C[C@H](O)[C@H]1Cc2ccc(cc2)OCCCCC(=O)NC(CC(N)=O)C(=O)N1)C(=O)N[C@H](C(N)=O)C(C)C` (some centres not stated) was run?
Answer: 0.008 µM

Question: With `CC(C)(C)NC(=O)[C@H](Cc1ccccc1)NCC(O)[C@@H]1Cc2ccc(cc2)OCCCC(=O)NC(CC(N)=O)C(=O)N1` (mixture of isomers) as the molecule, how does the Ki read?
Answer: 10.3 µM

Question: For `CC(C)[C@@H]1NC(=O)CCCCCOc2ccc(cc2)C[C@H]([C@H](O)CN2CCCC[C@H]2C(=O)NC(C)(C)C)NC1=O`, which Ki is on record?
Answer: 0.05 µM

Question: `CC(C)[C@@H]1NC(=O)CCCCOc2ccc(cc2)C[C@H]([C@H](O)CN2CCCC[C@H]2C(=O)NC(C)(C)C)NC1=O` was tested. Which Ki did it give?
Answer: 0.017 µM

Question: For `CC[C@H](C)[C@H](NC(=O)[C@@H]1CCCN1C[C@H](O)[C@H]1Cc2ccc(cc2)OCC(=O)NCC(=O)N[C@@H](CC(N)=O)C(=O)N1)C(=O)N[C@H](C(N)=O)C(C)C`, which Ki is on record?
Answer: 0.011 µM

Question: For `CC(C)(C)NC(=O)[C@@H]1CCCN1C[C@H](O)[C@H]1Cc2ccc(cc2)OCCCC(=O)NC(CC(N)=O)C(=O)N1` (some centres not stated), which Ki is on record?
Answer: 0.145 µM

Question: With `CC[C@H](C)[C@H](NC(=O)[C@@H]1CCCN1C[C@H](O)[C@H]1Cc2ccc(cc2)OCCCC(=O)NC(CC(N)=O)C(=O)N1)C(N)=O` (some centres not stated) as the molecule, how does the Ki read?
Answer: 0.25 µM

Question: For `CC(C)(C)NC(=O)CN(Cc1ccccc1)C[C@H](O)[C@H]1Cc2ccc(cc2)OCCCC(=O)N[C@@H](CC(N)=O)C(=O)N1`, which Ki is on record?
Answer: 13.6 µM

Question: With `CC[C@H](C)[C@H](NC(=O)[C@@H]1CCCN1C[C@@H](O)[C@H]1Cc2ccc(cc2)OCC(=O)NCC(=O)N[C@@H](CC(N)=O)C(=O)N1)C(=O)N[C@H](C(N)=O)C(C)C` as the molecule, how does the Ki read?
Answer: 0.2 µM

Question: `CC[C@H](C)[C@H](NC(=O)[C@@H]1CCCN1CC(O)[C@H]1Cc2ccc(cc2)OCC(=O)N[C@H](CCC(N)=O)C(=O)N[C@@H](CC(N)=O)C(=O)N1)C(=O)N[C@H](C(N)=O)C(C)C` (mixture of isomers) was tested. Which Ki did it give?
Answer: 0.004 µM

Question: For `CC[C@H](C)[C@H](NC(=O)[C@@H]1CCCN1C[C@H](O)[C@H](Cc1ccccc1)NC(=O)[C@H](CC(N)=O)NC(=O)[C@H](CC(C)C)NC(C)=O)C(=O)N[C@H](C(N)=O)C(C)C` (Ac-LN[Phe(ψ(S)CH(OH)CH2N)Pro]IV-NH2), which Ki is on record?
Answer: 0.003 µM

Question: How did the Ki turn out when `NC(=O)CC1NC(=O)CCCOc2ccc(cc2)C[C@H]([C@@H](O)CN2CCC[C@H]2C(N)=O)NC1=O` (some centres not stated) was run?
Answer: 36 µM

Question: `CC[C@H](C)[C@H](NC(=O)[C@@H]1CCCN1C[C@@H](O)[C@@H]1CSSC[C@@H](NC(C)=O)C(=O)NCC(=O)N[C@@H](CC(N)=O)C(=O)N1)C(=O)N[C@H](C(N)=O)C(C)C` was tested. Which Ki did it give?
Answer: 36 µM

Question: Which Ki does the source give for `CC[C@H](C)[C@H](NC(=O)[C@@H]1CCCN1C[C@@H](O)[C@H](Cc1ccccc1)NC(=O)[C@H](CC(N)=O)NC(=O)[C@H](CC(C)C)NC(C)=O)C(=O)N[C@H](C(N)=O)C(C)C` (Ac-LN[Pheψ(R-CH(OH)CH2N)Pro]IV-NH2) here?
Answer: 0.018 µM

Question: How did the Ki turn out when `CC(C)CN(CC(=O)NC(C)(C)C)C[C@H](O)[C@H]1Cc2ccc(cc2)OCCCC(=O)N[C@@H](CC(N)=O)C(=O)N1` was run?
Answer: 0.38 µM

Question: How did the Ki turn out when `CC[C@@H](C)[C@@H]1NC(=O)[C@@H](NC[C@@H](O)[C@@H]2Cc3ccc(cc3)OCCCCC(=O)N[C@@H](C(C)C)C(=O)N2)Cc2ccc(cc2)OCCCNC1=O` was run?
Answer: 0.003 µM
